Where two headings read alike, the source gives them in different places.
System: BEL-7404 xenograft
Conditions: for Body weight (start) / Tumor volume (start) / Average tumor weight (mean ± SD g) / Body weight (end) / RBW (%) (end) / Tumor volume (end): BEL-7404 model; for Average tumor weight (mean ± SD g) / Body weight (end) / RBW (%) (end) / Tumor volume (end): day 18
Protocol: In vivo anticancer efficacy of chiral platinum(II) complex 6 was evaluated using BEL-7404 and BEL-7402 xenograft mouse models. BEL-7404 and BEL-7402 cells were injected into nude mice. The mice were randomized into the control group, complex 6-treated group, and the positive control group (n = 6/group). When the volume of tumor was about 80 mm^3, complex 6 was given at a high (8 mg/kg) and low (4 mg/kg) dosage daily for 18 days, 5-FU (20 mg/kg every two days) and Cisplatin (2 mg/kg every two days) were used as a positive control in the BEL-7404 and BEL-7402 xenograft model, respectively.
To evaluate the vivo anticancer efficacy of complex 6, BEL-7404 and BEL-7402 xenograft mouse models (BALB/c nude mice, female for BEL-7404 model, 17–20 g, 6–7 weeks old; male for BEL-7402 model, 18-21 g, 6–7 weeks old) were used. Furthermore, animal used, maximum tolerated dose (MTD) analysis, acute toxicity studies and antitumor activity toward BEL-7404 and BEL-7402 models in vivo of complex 6, was similar to Chen reported.
H21T (3.5 pmol; 5’-G [T AG ] -3’), primer TS (18 pmol; tumor tissue were cut into about 1.5 mm3 small pieces, and […]
5’-[…]-3’), KCl (63 mM), then transplanted into the right flank of nude mice. When EGTA (1 mM), MgCl (1.5 mM), Tween-20 (0.005%), the average tumors reach a volume of about 80 mm3, the […]
primer NT (7.5 pmol; 5’-[…]-3’), mice were randomized into 4 groups (n=6), received the […]
TSNT internal control (0.01 amol; 5’-[…] following treatments: (a) control, received saline solvent; […]
-3’), primer (b) complex 6 at doses of 8.0 mg/kg daily (dissolve in […]
Cxext (22.5 pmol; 5’-[…] saline, iv); (c) complex 6 at doses of 4.0 mg/kg daily; […]
[…]-3’), Taq DNA polymerase (2.5 U), and (d) in BEL-7404 model, 5-fluorouracil (5-Fu) as positive telomerase (100 ng). Complexes or/and distilled water control at 20 mg/kg per two days (dissolve in saline, iv); was added ([…]). PCR was performed in an Eppendorf in BEL-7402 model, cisplatin as positive control at 2 mg/ Master cycler equipped with a hot lid and incubated for kg per two days (dissolve in saline, iv).
30.0 min at 30 °C, followed by 92 °C 30 s, 52 °C 30 s, The tumor volumes and body weight was monitored and 72°C 30 s for 30.0 cycles. After amplification, 8.0 every 3 days, The tumor volumes were estimated by […] loading buffer (5×TBE buffer, 0.2% xylene cyanol, measuring the two dimensions of the tumors using caliper and 0.2% bromophenol blue ) were added to the reaction. and calculated by the formula 1 [1, 6, 14]:
An […] of aliquot was loaded onto a nondenaturing V = (length × width2)/2(1) acrylamide gel (19:1, 16%) in 1×TBE buffer and resolved at 200.0 V for 1.0 h. Gels were fixed and then stained with On day 18, the mice were sacrificed, and tumor AgNO3 [8–11]. tissue were dissected out and weighted, tumor growth inhibition rate calculated using formulas 2 and 3 [1, 6,
In order to verify whether complexes 4–6 can TGI (%) = (ΔVc − ΔVt)/ΔVc×100%(2) directly regulate c-myc promoter (Pu27) and the IR(%) = (Wc − Wt)/Wc×100%(3) expression of hTRET in BEL-7404 cells, consequently Where ΔVt = tumor volumefinal −tumor volumeinitial inhibiting the telomerase function, we constructed EGFP for compound treated group, ΔVc=tumor volumefinal − and c-myc gene vectors according to those illustrated tumor volumeinitial for vehicle control group; Wt and Wc in Chalfie, Chen and He previous work. The detailed mean the average tumor weight of complex-treated and procedures for the construct of gene (c-myc and EGFP vehicle controlled group respectively. genes) vectors, and the method of transfection assays REFERENCES have been reported by Chalfie, Chen and He [1, 6, 9, 12,

## cis-[PtCl2(S-(–)-FOA)] [complex 6]
BEL-7404 and BEL-7402 models, 4 and 8 mg/kg daily
  discomfort / side effects in diet intake or overall body weight: did not display any discomfort or discernible side effects
6 4.0 mg/kg daily iv
  Body weight (start): 19.5 ± 1.6 g
  Tumor volume (start): 75.81±19.95 mm3
  Average tumor weight (mean ± SD g): 0.67 ± 0.08 g
  Body weight (end): 17.2 ± 1.7 g
  RBW (%) (end): 87.9±4.2%
  Tumor volume (end): 782.94±73.43 mm3
6 8.0 mg/kg daily iv
  Body weight (start): 19.5 ± 1.2 g
  Tumor volume (start): 73.70±16.66 mm3
  Average tumor weight (mean ± SD g): 0.51 ± 0.19 g
  Body weight (end): 17.4 ± 0.8 g
  RBW (%) (end): 89.2±2.5%
  Tumor volume (end): 659.96±253.88 mm3
